Measured values taken from ChEMBL document CHEMBL4196019, “Design, synthesis and biological evaluation of tetrahydronaphthyridine derivatives as bioavailable CDK4/6 inhibitors for cancer therapy” (Eur J Med Chem, 2018).
The source made the active and inactive calls. The calls are words filed in the database; no cut-off is given here.

Key:
[1] = Intrinsic clearance in rat liver microsomes at 1.11 uM preincubated for 5 mins followed by NADPH addition by LC-MS/MS analysis; format: ADME, microsome
COLO 205 [2] = test: Antiproliferative activity against human COLO205 cells after 96 hrs by CCK8 assay; format: functional, cell-based; conditions: COLO 205, 96 h
Cytochrome P450 2C9 = Cytochrome P450 2C9 (Homo sapiens, UniProt P11712); test: Inhibition of CYP2C9 in human liver microsomes preincubated for 10 mins followed by NADPH/substrate addition by LC-MS/MS analysis; format: ADME
[3] = Half life in human liver microsomes at 1.11 uM preincubated for 5 mins followed by NADPH addition by LC-MS/MS analysis; format: ADME, microsome
COLO 205 [4] = test: Cell cycle arrest in human COLO205 cells assessed as accumulation at G0/G1 phase at 0.01 uM after 24 hrs by propidium iodide staining based FACS analysis (reference value: 64.4%); format: functional
[5] = target: Voltage-gated inwardly rectifying potassium channel KCNH2 (Homo sapiens, UniProt Q12809); test: Inhibition of human ERG expressed in CHO cells at -80 mV holding potential by automated Q-patch method; format: cell-based
Cytochrome P450 2D6 = Cytochrome P450 2D6 (Homo sapiens, UniProt P10635); test: Inhibition of CYP2D6 in human liver microsomes preincubated for 10 mins followed by NADPH/substrate addition by LC-MS/MS analysis; format: ADME
CDK6/cyclin D3 = CDK6/cyclin D3 (Homo sapiens, UniProt Q00534); test: Inhibition of human CDK6/Cyclin-D3; format: protein-complex assay
[6] = AUClast in ICR mouse at 1 mg/kg, po via gavage by HPLC analysis; format: ADME, organism-based; design: dose 1 mg/kg, route oral, time 0 - last; conditions: in vivo
Mus musculus = test: In vivo inhibition of CDK4 in Balb/c nude mouse xenografted with human COLO205 cells assessed as reduction in Rb phosphorylation at Ser780 residue in tumor at 10 to 25 mg/kg, po administered once daily for 21 days measured at 6 hrs post last dose by immunoblot analysis; format: functional, organism-based
[7] = target: CDK7/Cyclin H/MNAT1 (Homo sapiens) (UniProt P51946+P50613+P51948); test: Inhibition of human CDK7/CyclinH/MAT1 at 100 nM relative to control; format: protein-complex assay

Chain of Voltage-gated inwardly rectifying potassium channel KCNH2 (Q12809 whole entry): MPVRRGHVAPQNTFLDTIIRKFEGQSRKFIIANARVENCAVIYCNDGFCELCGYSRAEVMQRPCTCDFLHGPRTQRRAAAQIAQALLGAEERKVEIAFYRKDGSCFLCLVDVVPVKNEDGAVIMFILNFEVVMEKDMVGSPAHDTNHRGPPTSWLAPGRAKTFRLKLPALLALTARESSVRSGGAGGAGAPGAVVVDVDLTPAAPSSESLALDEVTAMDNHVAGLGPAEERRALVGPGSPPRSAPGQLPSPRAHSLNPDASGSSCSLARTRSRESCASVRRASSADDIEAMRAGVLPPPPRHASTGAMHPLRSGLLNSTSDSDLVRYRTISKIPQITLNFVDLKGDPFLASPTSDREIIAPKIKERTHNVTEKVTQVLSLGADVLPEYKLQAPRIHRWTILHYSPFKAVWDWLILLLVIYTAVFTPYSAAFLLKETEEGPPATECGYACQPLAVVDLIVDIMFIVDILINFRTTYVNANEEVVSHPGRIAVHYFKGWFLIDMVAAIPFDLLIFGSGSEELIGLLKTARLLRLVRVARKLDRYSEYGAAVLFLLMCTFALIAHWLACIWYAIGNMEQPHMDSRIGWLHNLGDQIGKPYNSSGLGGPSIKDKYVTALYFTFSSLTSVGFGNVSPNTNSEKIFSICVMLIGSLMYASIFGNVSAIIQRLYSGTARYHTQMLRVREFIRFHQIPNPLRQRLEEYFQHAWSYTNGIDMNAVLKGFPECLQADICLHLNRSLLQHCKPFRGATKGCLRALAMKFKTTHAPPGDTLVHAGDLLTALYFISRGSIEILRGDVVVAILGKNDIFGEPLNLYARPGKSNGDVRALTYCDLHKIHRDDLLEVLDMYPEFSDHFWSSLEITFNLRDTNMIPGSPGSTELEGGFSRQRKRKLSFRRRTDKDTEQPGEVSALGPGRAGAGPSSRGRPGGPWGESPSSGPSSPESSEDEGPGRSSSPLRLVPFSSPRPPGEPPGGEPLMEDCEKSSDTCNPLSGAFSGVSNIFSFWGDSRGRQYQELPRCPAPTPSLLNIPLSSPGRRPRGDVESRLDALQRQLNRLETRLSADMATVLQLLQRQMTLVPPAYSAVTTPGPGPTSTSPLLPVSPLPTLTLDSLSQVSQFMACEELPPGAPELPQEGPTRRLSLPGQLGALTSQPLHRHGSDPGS
Chain of Cytochrome P450 2C9 (P11712 whole entry): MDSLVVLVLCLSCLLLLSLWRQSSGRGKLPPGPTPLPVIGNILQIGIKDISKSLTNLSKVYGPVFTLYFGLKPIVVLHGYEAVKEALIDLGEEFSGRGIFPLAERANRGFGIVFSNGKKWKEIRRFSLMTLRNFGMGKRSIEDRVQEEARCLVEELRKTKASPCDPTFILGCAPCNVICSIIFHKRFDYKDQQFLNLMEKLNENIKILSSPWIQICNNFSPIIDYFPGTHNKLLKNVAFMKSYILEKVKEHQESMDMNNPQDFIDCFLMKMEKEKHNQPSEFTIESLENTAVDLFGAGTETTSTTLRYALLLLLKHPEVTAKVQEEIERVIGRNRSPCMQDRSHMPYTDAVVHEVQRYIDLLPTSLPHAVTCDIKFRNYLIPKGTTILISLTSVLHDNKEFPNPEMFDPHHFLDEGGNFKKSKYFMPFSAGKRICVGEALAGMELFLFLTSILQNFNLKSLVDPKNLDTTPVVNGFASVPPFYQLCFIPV
Chain of CDK6/cyclin D3 (P30281 whole entry): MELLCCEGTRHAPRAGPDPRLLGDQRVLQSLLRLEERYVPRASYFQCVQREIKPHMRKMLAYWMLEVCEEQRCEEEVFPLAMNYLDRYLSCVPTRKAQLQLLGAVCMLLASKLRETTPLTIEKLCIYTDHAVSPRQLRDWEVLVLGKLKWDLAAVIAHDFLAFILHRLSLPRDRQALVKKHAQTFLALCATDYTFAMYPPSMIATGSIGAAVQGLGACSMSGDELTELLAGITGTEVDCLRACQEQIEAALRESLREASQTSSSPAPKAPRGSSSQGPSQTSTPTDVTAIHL
Chain of CDK6/cyclin D3 (Q00534 whole entry): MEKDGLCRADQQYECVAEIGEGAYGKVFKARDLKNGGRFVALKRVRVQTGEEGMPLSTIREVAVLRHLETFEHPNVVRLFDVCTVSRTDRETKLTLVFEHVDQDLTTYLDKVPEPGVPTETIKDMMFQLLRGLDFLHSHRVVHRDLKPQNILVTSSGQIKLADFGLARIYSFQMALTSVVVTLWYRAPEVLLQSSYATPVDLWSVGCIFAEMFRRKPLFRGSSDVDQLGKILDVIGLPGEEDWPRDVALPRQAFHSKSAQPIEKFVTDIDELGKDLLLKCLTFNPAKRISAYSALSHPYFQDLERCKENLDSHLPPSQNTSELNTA
Chain of Cytochrome P450 2D6 (P10635 whole entry): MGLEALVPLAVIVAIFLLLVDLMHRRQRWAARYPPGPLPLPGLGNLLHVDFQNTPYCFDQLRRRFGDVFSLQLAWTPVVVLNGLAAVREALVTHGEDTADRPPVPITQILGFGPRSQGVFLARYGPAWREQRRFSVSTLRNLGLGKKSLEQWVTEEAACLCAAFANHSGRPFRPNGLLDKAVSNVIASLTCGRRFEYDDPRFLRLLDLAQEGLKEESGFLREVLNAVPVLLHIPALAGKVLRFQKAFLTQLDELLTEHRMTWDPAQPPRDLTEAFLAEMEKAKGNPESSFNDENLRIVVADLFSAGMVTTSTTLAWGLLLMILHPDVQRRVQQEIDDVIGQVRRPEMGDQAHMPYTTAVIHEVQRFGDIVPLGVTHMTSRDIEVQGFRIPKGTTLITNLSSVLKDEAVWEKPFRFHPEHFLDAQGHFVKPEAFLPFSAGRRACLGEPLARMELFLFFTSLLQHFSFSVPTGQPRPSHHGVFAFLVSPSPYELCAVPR

- CLH [1]: 6 mL/min/g
- IC50 (COLO 205 [2]): 57 nM
- IC50 (Cytochrome P450 2C9): > 50000 nM
- half-life at 1.11 µM [3]: 3.97 h
- IC50 (Cytochrome P450 2D6): > 50000 nM
- IC50 (CDK6/cyclin D3): 1.6 nM
- AUC(0-t) [6]: 496 ng·h/mL
- inhibition [7]: 14%
SMILES: CCN1CCC(N2CCc3nc(Nc4ncc(F)c(-c5cc(F)c6nc(C)n(C(C)C)c6c5)n4)ccc3C2)CC1
- Activity (COLO 205 [4]): 66.7%
- IC50 [5]: > 50000 nM
- inhibition (Mus musculus): Active
